Experiment [1] has as its target T1, human NK2 receptor (Homo sapiens, UniProt P21452).
T1 construct: expressed in transfected cells; host or cells: Mouse Erythroleukemia (MEL) cells
T1 sequence (P21452 1-398): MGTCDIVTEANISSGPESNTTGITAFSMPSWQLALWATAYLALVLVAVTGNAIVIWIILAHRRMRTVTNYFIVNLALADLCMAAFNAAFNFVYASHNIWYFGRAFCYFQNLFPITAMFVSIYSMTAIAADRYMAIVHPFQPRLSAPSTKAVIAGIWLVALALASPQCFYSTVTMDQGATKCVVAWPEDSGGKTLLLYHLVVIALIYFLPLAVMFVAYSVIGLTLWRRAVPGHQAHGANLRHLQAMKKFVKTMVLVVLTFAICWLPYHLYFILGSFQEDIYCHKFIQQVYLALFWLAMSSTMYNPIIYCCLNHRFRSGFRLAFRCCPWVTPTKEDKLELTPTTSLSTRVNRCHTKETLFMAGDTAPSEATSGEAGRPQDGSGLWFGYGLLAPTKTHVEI
In words: Neurokinin A (NKA) Receptor Binding Assay (Test B). The settings on record: human NK2 receptor in MEL cells. An excerpt:
Neurokinin A (NKA) Receptor Binding Assay (Test B)
(§1) The selectivity of a Compound for binding at the NK1 and the NK2 receptors may be shown by determining its binding at other receptors using standard assays, for example, one using a tritiated derivative of NKB in a tissue preparation selective for NK3 receptors.

For experiment [2], the target named is T2, human NK1 receptor (Homo sapiens, UniProt P25103).
T2 construct: expressed in transfected cells; host or cells: Mouse Erythroleukemia (MEL) cells
In words: SP Receptor Binding Assay (Test A). The settings on record: human NK1 receptor in MEL cells.
Source text: SP Receptor Binding Assay (Test A)
The human NK1 receptor was isolated and characterized as described in: B. Hopkins, et al. "Isolation and characterization of the human lung NK1 receptor cDNA" Biochem. Biophys. Res. Comm., 1991, 180, 1110-1117; and the NK1 receptor was expressed in Mouse Erythroleukemia (MEL) cells using a procedure similar to that described in Test B below.
as §1

T2 sequence (P25103 whole entry): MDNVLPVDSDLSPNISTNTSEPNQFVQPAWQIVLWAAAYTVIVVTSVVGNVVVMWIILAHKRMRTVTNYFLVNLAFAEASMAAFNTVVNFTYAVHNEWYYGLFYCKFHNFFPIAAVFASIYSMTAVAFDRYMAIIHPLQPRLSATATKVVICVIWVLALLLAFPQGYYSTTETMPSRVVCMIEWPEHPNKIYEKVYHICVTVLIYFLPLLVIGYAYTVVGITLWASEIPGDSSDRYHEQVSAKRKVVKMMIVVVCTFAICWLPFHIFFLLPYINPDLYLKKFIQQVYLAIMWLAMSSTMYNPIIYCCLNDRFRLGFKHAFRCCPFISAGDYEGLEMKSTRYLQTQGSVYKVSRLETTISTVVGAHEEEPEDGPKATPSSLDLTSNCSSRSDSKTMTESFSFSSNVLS

For the molecule `CC(=O)NC1(c2ccccc2)CCN(CCC(OC(=O)NCc2ccccc2)c2ccc(Cl)c(Cl)c2)CC1` (centres unmarked) [Example 1, N-Benzyl-3-(4-acetamido4-phenylpiperidino)-1-(3,4-dichlorophenyl)propyl carbamate], the inhibition constant (Ki) stood at 0.00681 µM in experiment [1] and 0.163 µM in experiment [2].

The record behind these values is patent US6090824A, “Therapeutic neurokinin receptor antagonist compounds” (Zeneca Limited, priority 1995, dated 2000).
